Assay results reported in publication PMC10029980 (Journal of medicinal chemistry, 2022).

Experiments:
[1] = target: human recombinant PAK1 (kinase domain) (Homo sapiens, UniProt Q13153); assay: Z'-LYTE FRET kinase assay, PAK1 inhibition; format: biochemical; conditions: for PAK1 inhibitory activity and selectivity of NVS-PAK1-1 conjugates: tested for PAK1, PAK2 and PAK4 inhibition (Table S1)
[2] = target: Nluc-PAK1 (Homo sapiens, UniProt Q13153+Q96SW2); assay: Nluc-PAK1 luciferase quantitation of PAK1 expression; format: cell-based
Nluc-PAK1, sequence (Q13153 whole entry): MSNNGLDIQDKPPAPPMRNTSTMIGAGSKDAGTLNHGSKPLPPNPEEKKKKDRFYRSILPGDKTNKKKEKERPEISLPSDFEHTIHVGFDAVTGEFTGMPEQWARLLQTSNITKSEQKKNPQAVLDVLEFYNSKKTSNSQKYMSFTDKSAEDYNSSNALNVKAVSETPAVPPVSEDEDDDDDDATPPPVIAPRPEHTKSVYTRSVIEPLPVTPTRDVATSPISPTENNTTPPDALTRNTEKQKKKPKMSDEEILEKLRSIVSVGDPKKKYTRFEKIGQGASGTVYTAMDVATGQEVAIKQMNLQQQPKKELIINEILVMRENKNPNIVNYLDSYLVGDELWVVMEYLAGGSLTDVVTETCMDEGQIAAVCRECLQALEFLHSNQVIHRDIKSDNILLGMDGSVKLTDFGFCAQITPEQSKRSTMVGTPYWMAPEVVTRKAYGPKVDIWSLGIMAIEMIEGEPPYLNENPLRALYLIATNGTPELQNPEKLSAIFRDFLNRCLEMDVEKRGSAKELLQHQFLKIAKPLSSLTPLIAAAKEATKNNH
Nluc-PAK1, sequence (Q96SW2 whole entry): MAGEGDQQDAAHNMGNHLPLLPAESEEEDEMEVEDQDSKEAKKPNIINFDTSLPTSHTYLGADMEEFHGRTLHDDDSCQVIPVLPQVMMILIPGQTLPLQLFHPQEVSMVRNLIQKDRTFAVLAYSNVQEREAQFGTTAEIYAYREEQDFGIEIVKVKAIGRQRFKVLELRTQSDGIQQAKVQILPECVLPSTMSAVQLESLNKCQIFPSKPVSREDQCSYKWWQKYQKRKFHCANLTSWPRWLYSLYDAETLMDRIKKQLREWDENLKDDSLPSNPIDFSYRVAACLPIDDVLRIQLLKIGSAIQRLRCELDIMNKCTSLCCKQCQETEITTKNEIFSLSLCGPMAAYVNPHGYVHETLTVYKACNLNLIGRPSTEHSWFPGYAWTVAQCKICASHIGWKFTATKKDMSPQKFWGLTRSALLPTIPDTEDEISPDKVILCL
Nluc-PAK1, sequence (Q16531 whole entry partner): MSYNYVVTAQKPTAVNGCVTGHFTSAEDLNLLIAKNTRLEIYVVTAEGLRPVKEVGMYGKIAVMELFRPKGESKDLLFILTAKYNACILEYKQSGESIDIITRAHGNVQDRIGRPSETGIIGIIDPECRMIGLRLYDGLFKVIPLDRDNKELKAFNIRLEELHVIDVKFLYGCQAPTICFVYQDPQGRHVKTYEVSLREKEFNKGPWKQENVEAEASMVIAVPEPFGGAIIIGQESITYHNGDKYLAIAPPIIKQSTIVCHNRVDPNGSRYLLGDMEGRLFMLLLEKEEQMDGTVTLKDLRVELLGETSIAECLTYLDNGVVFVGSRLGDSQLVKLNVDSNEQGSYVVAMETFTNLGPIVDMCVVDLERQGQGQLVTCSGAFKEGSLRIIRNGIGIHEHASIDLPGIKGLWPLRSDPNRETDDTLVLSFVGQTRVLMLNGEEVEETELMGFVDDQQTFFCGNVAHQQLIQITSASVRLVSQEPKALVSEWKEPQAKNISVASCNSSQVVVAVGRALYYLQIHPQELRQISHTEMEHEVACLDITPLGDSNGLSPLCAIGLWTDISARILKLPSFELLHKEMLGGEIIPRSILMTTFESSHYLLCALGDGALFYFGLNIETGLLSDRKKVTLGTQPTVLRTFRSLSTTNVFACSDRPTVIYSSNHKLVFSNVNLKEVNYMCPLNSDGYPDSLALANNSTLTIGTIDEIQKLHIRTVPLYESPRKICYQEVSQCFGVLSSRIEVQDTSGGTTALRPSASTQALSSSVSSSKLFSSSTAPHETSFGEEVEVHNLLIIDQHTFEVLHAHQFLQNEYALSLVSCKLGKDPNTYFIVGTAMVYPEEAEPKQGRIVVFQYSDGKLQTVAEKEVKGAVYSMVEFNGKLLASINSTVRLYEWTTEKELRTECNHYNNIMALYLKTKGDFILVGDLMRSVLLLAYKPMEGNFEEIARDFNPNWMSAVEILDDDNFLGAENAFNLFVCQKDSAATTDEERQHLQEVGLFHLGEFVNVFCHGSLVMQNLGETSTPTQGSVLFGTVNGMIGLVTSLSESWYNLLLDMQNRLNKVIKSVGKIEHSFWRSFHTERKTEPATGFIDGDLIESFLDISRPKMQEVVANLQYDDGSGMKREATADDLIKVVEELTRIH

[3] = test system: HEY-A8 cells; assay: MTT cell proliferation, HEY-A8; format: cell-based; conditions: MTT assay, 96 hr, PAK2-dependent cells
[4] = test system: OVCAR3 cells; assay: MTT cell proliferation, OVCAR3; format: cell-based; conditions: for EC50: Homo sapiens, OVCAR-3, 96 h, read-out: EC50 anti-proliferative, OVCAR3
[5] = target: T1, PAK1 (Homo sapiens, UniProt Q13153); assay: PAK1 degradation in Panc1 cells; format: cell-based; conditions: compared with BJG-05-014 and BJG-05-027, Figure S2
T1 sequence (Q13153 whole entry): as the sequence (Q13153 whole entry) above

[6] = test system: phosphorylation of MEK1 at S298 and of ERK; assay: MEK and ERK phosphorylation by immunoblot in OVCAR3 and MCF7 cells; format: cell-based; conditions: 10 nM, 24 hr
[7] = target: human recombinant PAK2 (full length) (Homo sapiens, UniProt Q13177); assay: Z'-LYTE FRET kinase assay, PAK2 inhibition; format: biochemical
human recombinant PAK2 (full length), sequence (Q13177 whole entry): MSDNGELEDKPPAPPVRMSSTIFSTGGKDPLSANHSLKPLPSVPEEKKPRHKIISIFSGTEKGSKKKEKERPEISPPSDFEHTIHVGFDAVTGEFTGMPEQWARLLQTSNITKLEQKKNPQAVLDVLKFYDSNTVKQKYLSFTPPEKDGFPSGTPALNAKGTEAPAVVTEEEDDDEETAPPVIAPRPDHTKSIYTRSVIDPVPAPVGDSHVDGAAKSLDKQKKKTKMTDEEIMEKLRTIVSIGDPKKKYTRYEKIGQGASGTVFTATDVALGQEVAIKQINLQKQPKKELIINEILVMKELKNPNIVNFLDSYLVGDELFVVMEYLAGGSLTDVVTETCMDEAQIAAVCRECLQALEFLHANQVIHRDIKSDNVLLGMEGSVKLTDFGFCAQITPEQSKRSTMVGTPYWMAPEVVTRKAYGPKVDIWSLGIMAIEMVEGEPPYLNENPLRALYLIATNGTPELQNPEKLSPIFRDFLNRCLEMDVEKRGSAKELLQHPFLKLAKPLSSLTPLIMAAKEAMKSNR

[8] = test system: MCF7 cells; assay: MTT cell proliferation, MCF7; format: cell-based; conditions: for EC50: Homo sapiens, MCF7, 96 h, read-out: EC50 anti-proliferative, MCF7
[9] = test system: OMM1 cells; assay: MTT cell proliferation, OMM1; format: cell-based; conditions: MTT assay, 96 hr, PAK2-dependent cells
[10] = test system: MOLT4 cells proteome; assay: Global multiplexed mass spectrometry proteomics in MOLT4 cells; format: cell-based, human; conditions: 1 µM, 5 hr
[11] = target: T1, PAK1; assay: PAK1 degradation by immunoblot in MCF7 and OVCAR3 cells; format: cell-based
[12] = cited from earlier work
[13] = MCF7 and OVCAR3 cells, 24 hr treatment

human recombinant PAK1 (kinase domain), sequence (Q13153 270-521 limits assumed): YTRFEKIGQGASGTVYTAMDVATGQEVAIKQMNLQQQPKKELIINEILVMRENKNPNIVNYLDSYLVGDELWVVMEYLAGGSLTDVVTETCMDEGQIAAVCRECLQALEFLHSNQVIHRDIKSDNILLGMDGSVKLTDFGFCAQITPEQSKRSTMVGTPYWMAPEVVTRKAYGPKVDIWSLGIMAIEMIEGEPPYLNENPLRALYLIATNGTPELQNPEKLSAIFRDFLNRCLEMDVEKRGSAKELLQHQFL

SMILES: O=C1CCC(N2C(=O)c3cccc(NCCOCCOCCC(=O)N4CC[C@H](NC5=Nc6cc(F)ccc6N(CC(F)F)c6ccc(Cl)cc65)C4)c3C2=O)C(=O)N1 (stereo partly drawn) [BJG-05-014, 4-((2-(2-(3-((S)-3-((2-chloro-5-(2,2-difluoroethyl)-8-fluoro-5H-dibenzo[b,e][1,4]diazepin-11-yl)amino)pyrrolidin-1-yl)-3-oxopropoxy)ethoxy)ethyl)amino)-2-(2,6-dioxopiperidin-3-yl)isoindoline-1,3-dione]
- PAK1 inhibitory activity and selectivity of NVS-PAK1-1 conjugates [1]: retained PAK1 inhibitory activity and selectivity

SMILES: O=C1CCC(N2C(=O)c3cccc(NCCCCCNC(=O)N4CC[C@H](NC5=Nc6cc(F)ccc6N(CC(F)F)c6ccc(Cl)cc65)C4)c3C2=O)C(=O)N1 (stereo partly drawn) [BJG-05-027, (3S)-3-((2-chloro-5-(2,2-difluoroethyl)-8-fluoro-5H-dibenzo[b,e][1,4]diazepin-11-yl)amino)-N-(5-((2-(2,6-dioxopiperidin-3-yl)-1,3-dioxoisoindolin-4-yl)amino)pentyl)pyrrolidine-1-carboxamide]
- PAK1 inhibitory activity and selectivity of NVS-PAK1-1 conjugates [1]: retained PAK1 inhibitory activity and selectivity

SMILES: O=C1CCC(N2C(=O)c3cccc(NCCCCCCCCNC(=O)N4CC[C@H](NC5=Nc6cc(F)ccc6N(CC(F)F)c6ccc(Cl)cc65)C4)c3C2=O)C(=O)N1 (stereo partly drawn) [BJG-05-039, (3S)-3-((2-chloro-5-(2,2-difluoroethyl)-8-fluoro-5H-dibenzo[b,e][1,4]diazepin-11-yl)amino)-N-(8-((2-(2,6-dioxopiperidin-3-yl)-1,3-dioxoisoindolin-4-yl)amino)octyl)pyrrolidine-1-carboxamide]
- maximal loss of the PAK1 protein achieved [2]: ≤ 70%
- reduction in PAK1 expression ([2]; 10 nM, Nluc-PAK1 cells, 24 hr): approximately 70%
- anti-proliferative activity, HEY-A8 [3]: did not show increased efficacy relative to NVS-PAK1-1
- EC50 [4]: 0.1 µM
- PAK1 degradation profile in Panc1 cells [5]: most promising profile
- phosphorylation of ERK [6]: inhibiting phosphorylation of ERK
- phosphorylation of MEK S298 [6]: inhibited phosphorylation of MEK S298
- PAK1 inhibitory activity and selectivity of NVS-PAK1-1 conjugates [1]: retained PAK1 inhibitory activity and selectivity
- IC50 [7]: > 10 µM
- increase of selectivity over PAK2 relative to NVS-PAK-1 ([7]; Table S1): more than ten-fold
- EC50 [8]: 0.086 µM
- anti-proliferative activity, OMM1 [9]: did not show increased efficacy relative to NVS-PAK1-1
- downregulation of PAK1 in proteomic analysis [10]: significant downregulation of this kinase was not apparent
- downregulation of RNF166, Ikaros (IKZF1) and Aiolos (IKZF3) [10]: strongly downregulated
- reduction in PAK1 levels by immunoblot ([11]; Figure 2A): ~ 50%
- concentration at which diminished PAK1 degradation (hook effect) was observed [11, 13]: ≥ 1 µM
- concentration of maximal PAK1 degradation [11, 13]: 10 nM
- PAK1 degradation ([11]; MCF7 and OVCAR3 cells, 24 hr treatment, immunoblot): induced degradation of PAK1
- time to partial degradation of PAK1 ([11]; MCF7 cells, 10 nM): ≤ 4 h
- PAK1 degradation on co-treatment with bortezomib (proteasome inhibitor) ([11]; co-treatment with bortezomib): prevented PAK1 destabilization

SMILES: Cc1ccc(CO)cc1N(Cc1ccccc1C#N)c1nc(Nc2ccc(N3CCN(CCOCCOCCNc4cccc5c4C(=O)N(C4CCC(=O)NC4=O)C5=O)CC3)c(S(C)(=O)=O)c2)ncc1F (centres unmarked) [BJG-05-093, 2-(((2-((4-(4-(2-(2-(2-((2-(2,6-dioxopiperidin-3-yl)-1,3-dioxoisoindolin-4-yl)amino)ethoxy)ethoxy)ethyl)piperazin-1-yl)-3-(methylsulfonyl)phenyl)amino)-5-fluoropyrimidin-4-yl)(5-(hydroxymethyl)-2-methylphenyl)amino)methyl)benzonitrile]
- inhibitor activity of linker conjugates of an ATP-competitive PAK1 inhibitor ([1]; Table S1): retained inhibitor activity

SMILES: CC(C)NC(=O)N1CC[C@H](NC2=Nc3cc(F)ccc3N(CC(F)F)c3ccc(Cl)cc32)C1 [NVS-PAK1-1]
- EC50 [4]: 8.9 µM
- phosphorylation of ERK [6]: no visible impact
- phosphorylation of MEK S298 [6]: no visible impact
- IC50 [7]: 0.824 µM
- effect of combination with PAK shRNA on MCF7 cells ([8]; 100 nM, MCF7 cells with PAK shRNA): lethal
- EC50 [8]: 11.8 µM
- in vivo half-life [12]: short in vivo half-life

SMILES: Nc1cccc2c1CN(C1CCC(=O)NC1=O)C2=O (centres unmarked) [lenalidomide]
- anti-proliferative activity, OVCAR3 ([4]; MTT assay, 96 hr): lacked significant antiproliferative effects
- anti-proliferative activity, MCF7 ([8]; MTT assay, 96 hr): lacked significant antiproliferative effects
